The numbers were not newly measured in patent US20070154935A1, “HUMAN OBESITY SUSCEPTIBILITY GENE AND USES THEREOF” (INTEGRAGEN, priority 2002, published 2007), which cites them from elsewhere.

One data set concerns healthy controls. As to conditions: intranasal application.
Data set [1] relates to massively obese child with leptin deficiency mutation. As to conditions: one child with leptin deficiency mutation.

Regarding “adrenocorticotropin4-10 (MEHFRWG; Corticotropin; UniProt P01189 141-147, looked up, fragment) [ACTH4-10]”, in the data set with healthy controls, the body fat mass entry was “reduced”, the plasma leptin concentrations entry was “reduced” and the weight result is on record as “reduced”.

On to “recombinant leptin: recombinant leptin given to a child with a leptin deficiency mutation”, for which the “treatment outcome of morbid obesity” value in data set [1] was “treated successfully”.
